Test results: patent US20230085307A1, “PYRIDAZINONE COMPOUND AND HERBICIDE” (NISSAN CHEMICAL CORPORATION, priority 2019, published 2023)

Assays:
[1] = test system: persian speedwell; experiment: Test Example 4: herbicidal effect by soil treatment (Table 19, symbol R); assay type: in vivo, Persian speedwell (Veronica persica); settings: for herbicidal effect rating, R: persian speedwell: amount of applied herbicide 320 g/ha; for R: persian speedwell, herbicidal effect rating: AAH 320 g/ha
Summary of the method: (§1)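 Step 1: sow seeds in sterilized diluvial soil, cover ~1.5 cm. Step 2: spray diluted emulsion onto soil surface at predetermined rate. Step 3: greenhouse, 25–30° C, three weeks. Step 4: grade effect on each plant by earlier criteria.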

[2] = test system: blackgrass; experiment: Test Example 4: herbicidal effect by soil treatment (Table 19, symbol J); assay type: in vivo, blackgrass (Alopecurus myosuroides); settings: for herbicidal effect rating, J: blackgrass: amount of applied herbicide 320 g/ha; for J: blackgrass, herbicidal effect rating: AAH 320 g/ha
Summary of the method: as §1

[3] = test system: velvetleaf; experiment: Test Example 4: herbicidal effect by soil treatment (Table 19, symbol M); assay type: in vivo, velvetleaf (Abutilon theophrasti); settings: for herbicidal effect rating, M: velvetleaf: amount of applied herbicide 320 g/ha; for M: velvetleaf, herbicidal effect rating: AAH 320 g/ha
Summary of the method: as §1

[4] = test system: Japanese bulrush; experiment: Test Example 2: herbicidal activity, application during weed generation under submerged conditions (Table 17, symbol B); assay type: in vivo, Japanese bulrush (Schoenoplectus juncoides); settings: AAH 320 g/ha; application during weed generation, submerged conditions
Summary of the method: (§2)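 Alluvial soil in Wagner pots was flooded to 4 cm depth and sown with the three weeds together; pots were kept in a greenhouse at 25° C. to 30° C. At the one to two leaf stage, an emulsion formulation diluted in water to a set rate went onto the water surface; scored three weeks later.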

[5] = test system: persian speedwell; experiment: Test Example 5: herbicidal effect by foliage application, plastic box (Table 20, symbol R); assay type: in vivo, Persian speedwell (Veronica persica); settings: foliage application, three weeks after application; for herbicidal effect grade, R: persian speedwell: 320 g/ha; for R: persian speedwell, herbicidal effect: AAH 320 g/ha
Summary of the method: (§3)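 Foliar spray test: emulsion formulation diluted in water to a set application rate, sprayed onto 14-day-old plants raised in diluvial soil at 25° C to 30° C under glass. Both herbicidal effect and crop effect rated visually three weeks later.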

[6] = test system: barnyard grass; experiment: Test Example 4: herbicidal effect by soil treatment (Table 19, symbol H); assay type: in vivo, barnyard grass (Echinochloa crus-galli); settings: for herbicidal effect rating, H: barnyard grass: amount of applied herbicide 320 g/ha; for H: barnyard grass, herbicidal effect rating: AAH 320 g/ha
Summary of the method: as §1

[7] = test system: green foxtail; experiment: Test Example 4: herbicidal effect by soil treatment (Table 19, symbol G); assay type: in vivo, green foxtail (Setaria viridis); settings: for herbicidal effect rating, G: green foxtail: amount of applied herbicide 320 g/ha; for G: green foxtail, herbicidal effect rating: AAH 320 g/ha
Summary of the method: as §1

[8] = test system: redroot pigweed; experiment: Test Example 4: herbicidal effect by soil treatment (Table 19, symbol N); assay type: in vivo, redroot pigweed (Amaranthus retroflexus); settings: for herbicidal effect rating, N: redroot pigweed: amount of applied herbicide 320 g/ha; for N: redroot pigweed, herbicidal effect rating: AAH 320 g/ha
Summary of the method: as §1

[9] = test system: barnyard grass; experiment: Test Example 3: herbicidal effect by foliage application, Wagner pot (Table 18, symbol H); assay type: in vivo, barnyard grass (Echinochloa crus-galli); settings: 320 g/ha
Summary of the method: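 Plants were sown in alluvial soil held under 0.1–0.5 cm standing water and grown 14 days in a greenhouse at 25–30 °C. An emulsifiable formulation, water-diluted to the set dose, was then sprayed onto the foliage, and effects were scored three weeks later using previously defined criteria.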

[10] = test system: oval-leafed pondweed; experiment: Test Example 2: herbicidal activity, application during weed generation under submerged conditions (Table 17, symbol C); assay type: in vivo, oval-leafed pondweed (Monochoria vaginalis); settings: AAH 320 g/ha; application during weed generation, submerged conditions
Summary of the method: as §2

[11] = test system: blackgrass; experiment: Test Example 5: herbicidal effect by foliage application, plastic box (Table 20, symbol J); assay type: in vivo, blackgrass (Alopecurus myosuroides); settings: foliage application, three weeks after application; for herbicidal effect grade, J: blackgrass: 320 g/ha; for J: blackgrass, herbicidal effect: AAH 320 g/ha
Summary of the method: as §3

[12] = test system: Japanese bulrush; experiment: Test Example 1: herbicidal activity, application before weed generation under submerged conditions (Table 16, symbol B); assay type: in vivo, Japanese bulrush (Schoenoplectus juncoides); settings: 320 g/ha applied herbicide
Summary of the method: (§4)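 Submerged Wagner pots (alluvial soil, 4 cm water) sown with weed seeds and planted with 2.5-leaf rice seedlings; emulsifiable concentrate diluted in water applied to water surface on sowing day. Held in greenhouse at 25-30 °C; injury scored 0-5 by herbicidal rate after three weeks.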

[13] = test system: oval-leafed pondweed; experiment: Test Example 1: herbicidal activity, application before weed generation under submerged conditions (Table 16, symbol C); assay type: in vivo, oval-leafed pondweed (Monochoria vaginalis); settings: 320 g/ha applied herbicide
Summary of the method: as §4

[14] = test system: windgrass; experiment: Test Example 5: herbicidal effect by foliage application, plastic box (Table 20, symbol L); assay type: in vivo, windgrass (Apera spica-venti); settings: foliage application, three weeks after application; for herbicidal effect grade, L: windgrass: 320 g/ha; for L: windgrass, herbicidal effect: AAH 320 g/ha
Summary of the method: as §3

[15] = test system: southern crabgrass; experiment: Test Example 5: herbicidal effect by foliage application, plastic box (Table 20, symbol F); assay type: in vivo, southern crabgrass (Digitaria ciliaris); settings: foliage application, three weeks after application; for herbicidal effect grade, F: southern crabgrass: 320 g/ha; for F: southern crabgrass, herbicidal effect: AAH 320 g/ha
Summary of the method: as §3

[16] = test system: velvetleaf; experiment: Test Example 5: herbicidal effect by foliage application, plastic box (Table 20, symbol M); assay type: in vivo, velvetleaf (Abutilon theophrasti); settings: foliage application, three weeks after application; for herbicidal effect grade, M: velvetleaf: 320 g/ha; for M: velvetleaf, herbicidal effect: AAH 320 g/ha
Summary of the method: as §3

[17] = test system: green foxtail; experiment: Test Example 5: herbicidal effect by foliage application, plastic box (Table 20, symbol G); assay type: in vivo, green foxtail (Setaria viridis); settings: foliage application, three weeks after application; for herbicidal effect grade, G: green foxtail: 320 g/ha; for G: green foxtail, herbicidal effect: AAH 320 g/ha
Summary of the method: as §3

Row | Compound | herbicidal effect rating, R: persian speedwell [1] | herbicidal effect rating, J: blackgrass [2] | herbicidal effect rating, M: velvetleaf [3] | herbicidal effect rating, B: Japanese bulrush [4] | herbicidal effect grade, R: persian speedwell [5] | herbicidal effect rating, H: barnyard grass [6] | herbicidal effect rating, G: green foxtail [7] | herbicidal effect rating, N: redroot pigweed [8] | herbicidal effect on H (barnyard grass), rating 0-5 [9] | herbicidal effect rating, C: oval-leafed pondweed [10] | herbicidal effect grade, J: blackgrass [11] | Herbicidal effect on B: Japanese bulrush (grade 0-5) [12] | Herbicidal effect on C: oval-leafed pondweed (grade 0-5) [13] | herbicidal effect grade, L: windgrass [14] | R: persian speedwell, herbicidal effect [5] | J: blackgrass, herbicidal effect [11] | L: windgrass, herbicidal effect [14] | F: southern crabgrass, herbicidal effect [15] | M: velvetleaf, herbicidal effect [16] | G: green foxtail, herbicidal effect [17] | also measured
1 | COc1ccc(-c2sc3ccccc3c2-c2c(O)c(C)nn(C)c2=O)cc1OC [1-072] | 5 (Herbicidal rate of 90% or more (almost completely withered)) | 0 (Herbicidal rate of 5% or less (almost no effect)) | 5 (Herbicidal rate of 90% or more (almost completely withered)) | 3 (Herbicidal rate of 40% or more and less than 70%) | 5 (Herbicidal rate of 90% or more (almost completely withered)) | 5 (Herbicidal rate of 90% or more (almost completely withered)) | 5 (Herbicidal rate of 90% or more (almost completely withered)) | 5 (Herbicidal rate of 90% or more (almost completely withered)) | 5 (Herbicidal rate of 90% or more (almost completely withered)) | 5 (Herbicidal rate of 90% or more (almost completely withered)) | 3 (Herbicidal rate of 40% or more and less than 70%) | 3 (Herbicidal rate of 40% or more and less than 70%) | 0 (Herbicidal rate of 5% or less (almost no effect)) | 1 (Herbicidal rate of 5% or more and less than 20%) | – | – | – | – | – | – | herbicidal effect grade, F: southern crabgrass [15]: 5 (Herbicidal rate of 90% or more (almost completely withered)); herbicidal effect grade, M: velvetleaf [16]: 5 (Herbicidal rate of 90% or more (almost completely withered)); herbicidal effect grade, G: green foxtail [17]: 5 (Herbicidal rate of 90% or more (almost completely withered))
2 | Cc1nn(C)c(=O)c(-c2c(-c3ccc4c(c3)OCO4)sc3ccccc23)c1O [1-087] | 5 (Herbicidal rate of 90% or more (almost completely withered)) | 0 (Herbicidal rate of 5% or less (almost no effect)) | 0 (Herbicidal rate of 5% or less (almost no effect)) | 1 (Herbicidal rate of 5% or more and less than 20%) | 5 (Herbicidal rate of 90% or more (almost completely withered)) | 4 (Herbicidal rate of 70% or more and less than 90%) | 5 (Herbicidal rate of 90% or more (almost completely withered)) | 5 (Herbicidal rate of 90% or more (almost completely withered)) | 4 (Herbicidal rate of 70% or more and less than 90%) | 3 (Herbicidal rate of 40% or more and less than 70%) | 3 (Herbicidal rate of 40% or more and less than 70%) | 1 (Herbicidal rate of 5% or more and less than 20%) | 0 (Herbicidal rate of 5% or less (almost no effect)) | 0 (Herbicidal rate of 5% or less (almost no effect)) | – | – | – | – | – | – | herbicidal effect grade, F: southern crabgrass [15]: 5 (Herbicidal rate of 90% or more (almost completely withered)); herbicidal effect grade, M: velvetleaf [16]: 4 (Herbicidal rate of 70% or more and less than 90%); herbicidal effect grade, G: green foxtail [17]: 5 (Herbicidal rate of 90% or more (almost completely withered))
3 | C=CCOc1ccccc1-c1sc2ccccc2c1-c1c(O)c(C)nn(C)c1=O [1-110] | 3 (Herbicidal rate of 40% or more and less than 70%) | 2 (Herbicidal rate of 20% or more and less than 40%) | 1 (Herbicidal rate of 5% or more and less than 20%) | 2 (Herbicidal rate of 20% or more and less than 40%) | – | 3 (Herbicidal rate of 40% or more and less than 70%) | 3 (Herbicidal rate of 40% or more and less than 70%) | 0 (Herbicidal rate of 5% or less (almost no effect)) | 4 (Herbicidal rate of 70% or more and less than 90%) | 0 (Herbicidal rate of 5% or less (almost no effect)) | – | 0 (Herbicidal rate of 5% or less (almost no effect)) | 4 (Herbicidal rate of 70% or more and less than 90%) | – | 5 (Herbicidal rate of 90% or more (almost completely withered)) | 4 (Herbicidal rate of 70% or more and less than 90%) | 3 (Herbicidal rate of 40% or more and less than 70%) | 4 (Herbicidal rate of 70% or more and less than 90%) | 2 (Herbicidal rate of 20% or more and less than 40%) | 4 (Herbicidal rate of 70% or more and less than 90%) | –
4 | CCCC(=O)Oc1c(C)nn(C)c(=O)c1-c1c(-c2ccc(C(F)(F)F)cc2)sc2ccccc12 [1-130] | – | – | – | 2 (Herbicidal rate of 20% or more and less than 40%) | – | – | – | – | 4 (Herbicidal rate of 70% or more and less than 90%) | 0 (Herbicidal rate of 5% or less (almost no effect)) | – | 3 (Herbicidal rate of 40% or more and less than 70%) | 3 (Herbicidal rate of 40% or more and less than 70%) | – | 5 (Herbicidal rate of 90% or more (almost completely withered)) | 0 (Herbicidal rate of 5% or less (almost no effect)) | 3 (Herbicidal rate of 40% or more and less than 70%) | 0 (Herbicidal rate of 5% or less (almost no effect)) | 5 (Herbicidal rate of 90% or more (almost completely withered)) | 0 (Herbicidal rate of 5% or less (almost no effect)) | R: persian speedwell, herbicidal effect rating [1]: 3 (Herbicidal rate of 40% or more and less than 70%); J: blackgrass, herbicidal effect rating [2]: 0 (Herbicidal rate of 5% or less (almost no effect)); M: velvetleaf, herbicidal effect rating [3]: 1 (Herbicidal rate of 5% or more and less than 20%); H: barnyard grass, herbicidal effect rating [6]: 3 (Herbicidal rate of 40% or more and less than 70%); G: green foxtail, herbicidal effect rating [7]: 3 (Herbicidal rate of 40% or more and less than 70%); N: redroot pigweed, herbicidal effect rating [8]: 3 (Herbicidal rate of 40% or more and less than 70%)
5 | C#CCOc1ccc(-c2sc3ccccc3c2-c2c(O)c(C)nn(C)c2=O)cc1 [1-136] | – | – | – | 2 (Herbicidal rate of 20% or more and less than 40%) | – | – | – | – | 5 (Herbicidal rate of 90% or more (almost completely withered)) | 0 (Herbicidal rate of 5% or less (almost no effect)) | – | 2 (Herbicidal rate of 20% or more and less than 40%) | 0 (Herbicidal rate of 5% or less (almost no effect)) | – | 5 (Herbicidal rate of 90% or more (almost completely withered)) | 1 (Herbicidal rate of 5% or more and less than 20%) | 5 (Herbicidal rate of 90% or more (almost completely withered)) | 0 (Herbicidal rate of 5% or less (almost no effect)) | 4 (Herbicidal rate of 70% or more and less than 90%) | 5 (Herbicidal rate of 90% or more (almost completely withered)) | R: persian speedwell, herbicidal effect rating [1]: 4 (Herbicidal rate of 70% or more and less than 90%); J: blackgrass, herbicidal effect rating [2]: 0 (Herbicidal rate of 5% or less (almost no effect)); M: velvetleaf, herbicidal effect rating [3]: 3 (Herbicidal rate of 40% or more and less than 70%); H: barnyard grass, herbicidal effect rating [6]: 4 (Herbicidal rate of 70% or more and less than 90%); G: green foxtail, herbicidal effect rating [7]: 4 (Herbicidal rate of 70% or more and less than 90%); N: redroot pigweed, herbicidal effect rating [8]: 4 (Herbicidal rate of 70% or more and less than 90%)
